Source: patent US9670172B2, “Heterocyclic compounds and methods of use” (Medivation Technologies, Inc., priority 2014, dated 2017)
In brackets after ≈: the same amount, converted by molar mass. Where two headings read alike, the source gives them in different places.

Assays:
[1] = HepG2 cell viability by MTS; type: cell-based; conditions: human, HepG2 cells, 3 days, DMEM without FBS, MTS, read-out: Average Viability (% Inhibition, n = 3)
Protocol: (§1) For viability measurements, HepG2 cells were seeded at 5,000 cells per well in 96-well plates in DMEM supplemented with 10% FBS. After 1 day in culture, cells were treated with compounds (20 μM & 5 μM) for 3 days in DMEM without FBS. Viability was measured by MTS. Treatment with compounds (20 μM & 5 μM) was carried out in medium without FBS, and viability was measured by MTS. […]

[2] = PK parameters for representative compounds (i.v. and p.o.); conditions: in vivo; for half-life: read-out: Terminal t1/2 (converted)
Description: Standard PK parameters were collected in Mouse and Dog for Compound #37 in mouse (FIG. 4A) and dog (FIG. 4B).

[3] = test system: SREBP2; assay: SREBP2 cleavage in HEPG2 cells (Western blot normalized to actin); type: cell-based; conditions: Homo sapiens, HepG2 cells, read-out: Average SREBP2 cleavage (% Inhibition, n = 3)
Protocol: Average SREBP2 cleavage in HEPG2 cells was measured in the presence of compounds disclosed in Table 1. HepG2 cells were seeded at 500,000 cells per well in 6-well plates in DMEM supplemented with 10% FBS. After 2 days, cells were treated with compounds (20 μM) for 1 day in DMEM without FBS. Western blots were normalized with respect to actin.
The results are shown in Table 3 as percent inhibition@20 μM, and in Table 4 as percent inhibition@5 μM.

[4] = test system: HepG2 cells; assay: HepG2 cell viability by MTS; type: cell-based; conditions: Homo sapiens, several concentrations, FIG. 1
Protocol: as §1

[5] = Solubility study at different pH (Pion, Inc.); type: physicochemical; conditions: aqueous buffer
Description: Other ionized forms are conceivable, but those presented here are a protonated form; a neutral or internal zwitterionic form; and an anionic form. Which form would exist is dependent upon the pH of the aqueous or physiological solution in which the compound is placed. […] These values are similar to those experimentally obtained under potentiometric and spectrophotometric methods [courtesy of Pion, Inc.], found to be 3.09 and 5.27. […] It is postulated that the more electronegative nature of the CF3 group results in a more highly acidic nature of the compound. Based on the calculated/measured pKa values of the trifluoromethylsulfonamide containing compounds claimed herein, it is likely that at a pH of 6-8, these compounds will predominantly exist in the anionic form, with the above equilibrium lying to the right at higher pH values. The anionic form renders the compound more aqueous soluble and therefore better absorbed. […] When a compound is dosed orally, most of the absorption occurs in the intestines where the pH ranges from 6-8.

[6] = test system: SREBP2; assay: SREBP2 cleavage in HEPG2 cells (Western blot normalized to actin); type: cell-based; conditions: Homo sapiens, several concentrations, FIG. 1
[7] = pKa by potentiometric and spectrophotometric methods (Pion, Inc.); type: physicochemical; conditions: two values, read-out: pKa experimentally obtained
Description: As has been described above, the inherent pKa(s) of molecules can be assessed by potentiometric methods known to the skilled artisan, typically UV spectrophotometry [see, for example, Julémont, et al. J. Med. Chem. (2002), 45, pp 5182-5185]. In-silico methods can be used as a predictive tool, and software is commercially available from, for example, ACD/Labs, Molecular Discovery, ChemAxon, and other vendors. […] The compounds provided herein contain several ionizable centers including, for example, the trifluoromethylsulfonamide nitrogen atom; the thiazole ring nitrogen atom; the “ring A” pyridine nitrogen atom, etc.
Other ionized forms are conceivable, but those presented here are a protonated form; a neutral or internal zwitterionic form; and an anionic form. Which form would exist is dependent upon the pH of the aqueous or physiological solution in which the compound is placed. […] These values are similar to those experimentally obtained under potentiometric and spectrophotometric methods [courtesy of Pion, Inc.], found to be 3.09 and 5.27. […] Based on the calculated/measured pKa values of the trifluoromethylsulfonamide containing compounds claimed herein, it is likely that at a pH of 6-8, these compounds will predominantly exist in the anionic form, with the above equilibrium lying to the right at higher pH values. […]

O=S(=O)(Nc1ccc(-c2csc(-c3cccc(N4CCCCC4)c3)n2)c(Cl)c1)C(F)(F)F [Compound 88, N-(3-chloro-4-{2-[3-(piperidin-1-yl)phenyl]-1,3-thiazol-4-yl}phenyl)-1,1,1-trifluoromethanesulfonamide]
cytotoxicity at 3 days, 5 μM [1]: 19%
AUC(0-t) ([2]; iv, i.v. @ 2 mg/kg): 10.6 µM·h
Cmax ([2]; iv, i.v. @ 2 mg/kg): 3.44 µM
Vd ([2]; iv, i.v. @ 2 mg/kg): 1.45 L/kg
clearance ([2]; iv, i.v. @ 2 mg/kg): 5 mL/min/kg
half-life ([2]; iv, i.v. @ 2 mg/kg): 3.35 h
AUC(0-t) ([2]; po, p.o. @ 10 mg/kg): 51.5 µM·h
Cmax ([2]; po, p.o. @ 10 mg/kg): 8.41 µM
Tmax ([2]; po, p.o. @ 10 mg/kg): 2 h
bioavailability ([2]; po, p.o. @ 10 mg/kg): 96.8%
half-life ([2]; po, p.o. @ 10 mg/kg): > 8 h
inhibition at 5 µM [3]: 90%

CC(C)Cc1cc(-c2nc(-c3ccc(NS(=O)(=O)C(F)(F)F)cc3Cl)cs2)ccn1 [Compound 37, N-(3-chloro-4-(2-(2-isobutylpyridin-4-yl)thiazol-4-yl)phenyl)-1,1,1-trifluoromethanesulfonamide]
IC50 [4]: 2.15 µM
cytotoxicity at 3 days, 5 μM [1]: 94%
cytotoxicity at 3 days, 20 μM ([1]; 20 μM): 95%
solubility ([5]; pH 6.0): 13 µg/mL (≈ 27.3 µM)
solubility ([5]; pH 7.0): 104 µg/mL (≈ 219 µM)
solubility ([5]; pH 8.0): > 130 µg/mL
IC50 [6]: 4.6 µM
inhibition at 20 µM ([3]; 24 h, 20 μM, 1 day, DMEM without FBS): 94.6%
inhibition at 5 µM [3]: 75%
pKa [7]: 3.09

O=S(=O)(Nc1ccc(-c2csc(-c3ccnc(CC4CCCCC4)c3)n2)c(Cl)c1)C(F)(F)F [Compound 70, N-(3-chloro-4-{2-[2-(cyclohexylmethyl)pyridin-4-yl]-1,3-thiazol-4-yl}phenyl)-1,1,1-trifluoromethanesulfonamide]
cytotoxicity at 3 days, 5 μM [1]: 100%
AUC(0-t) ([2]; iv, i.v. @ 2 mg/kg): 2.2 µM·h
Cmax ([2]; iv, i.v. @ 2 mg/kg): 4 µM
Vd ([2]; iv, i.v. @ 2 mg/kg): 5.22 L/kg
clearance ([2]; iv, i.v. @ 2 mg/kg): 54.7 mL/min/kg
half-life ([2]; iv, i.v. @ 2 mg/kg): 1.1 h
AUC(0-t) ([2]; po, p.o. @ 10 mg/kg): 5.19 µM·h
Cmax ([2]; po, p.o. @ 10 mg/kg): 2.2 µM
Tmax ([2]; po, p.o. @ 10 mg/kg): 0.5 h
bioavailability ([2]; po, p.o. @ 10 mg/kg): 46.4%
half-life ([2]; po, p.o. @ 10 mg/kg): 1.04 h
inhibition at 5 µM [3]: 73%

O=S(=O)(Nc1ccc(-c2csc(-c3cccc4[nH]ccc34)n2)c(Cl)c1)C(F)(F)F [Compound 80, N-{3-chloro-4-[2-(1H-indol-4-yl)-1,3-thiazol-4-yl]phenyl}-1,1,1-trifluoromethanesulfonamide]
cytotoxicity at 3 days, 5 μM [1]: 86%
AUC(0-t) ([2]; iv, i.v. @ 2 mg/kg): 8.94 µM·h
Cmax ([2]; iv, i.v. @ 2 mg/kg): 3.63 µM
Vd ([2]; iv, i.v. @ 2 mg/kg): 1.72 L/kg
clearance ([2]; iv, i.v. @ 2 mg/kg): 70.8 mL/min/kg
half-life ([2]; iv, i.v. @ 2 mg/kg): 2.8 h
AUC(0-t) ([2]; po, p.o. @ 10 mg/kg): 130 µM·h
Cmax ([2]; po, p.o. @ 10 mg/kg): 20.6 µM
Tmax ([2]; po, p.o. @ 10 mg/kg): 4 h
bioavailability ([2]; po, p.o. @ 10 mg/kg): 291%
half-life ([2]; po, p.o. @ 10 mg/kg): > 8 h
inhibition at 5 µM [3]: 90%
